Assay results published in the supplement of paper PMC10307832.

Tests used:
Test in all cases: relative viability (nuclei count vs DMSO), 5 days (fraction); higher = more cells survive
NCI-H838 = tested on: NCI-H838
Procedure, shortened: (§1)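 Relative viability is defined as nuclei in treated wells over nuclei in vehicle wells. Duplicate plates were run and medians reported. Lung cancer cell lines in 1536-well plates were dosed by pin tool one day after seeding, with one drug or with a fixed anchor-drug dose plus five library-drug doses (not always all listed) in √10 steps, and nuclei were counted after 5 days.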

UMC-11 = tested on: UMC-11
Procedure, shortened: as §1

NCI-H1734 = tested on: NCI-H1734
Procedure, shortened: as §1

HARA = tested on: HARA
Procedure, shortened: as §1

NCI-H1993 = tested on: NCI-H1993
Procedure, shortened: as §1

NCI-H1755 = tested on: NCI-H1755
Procedure, shortened: as §1

COR-L23 = tested on: COR-L23
Procedure, shortened: as §1

NCI-H1395 = tested on: NCI-H1395
Procedure, shortened: as §1

NCI-H2228 = tested on: NCI-H2228
Procedure, shortened: as §1

NCI-H2347 = tested on: NCI-H2347
Procedure, shortened: as §1

NCI-H2009 = tested on: NCI-H2009
Procedure, shortened: as §1

NCI-H2342 = tested on: NCI-H2342
Procedure, shortened: as §1

NCI-H358 = tested on: NCI-H358
Procedure, shortened: as §1

EKVX = tested on: EKVX
Procedure, shortened: as §1

HCC-15 = tested on: HCC-15
Procedure, shortened: as §1

SK-MES-1 = tested on: SK-MES-1
Procedure, shortened: as §1

HOP-62 = tested on: HOP-62
Procedure, shortened: as §1

PC-14 = tested on: PC-14
Procedure, shortened: as §1

COR-L 105 = tested on: COR-L 105
Procedure, shortened: as §1

NCI-H2170 = tested on: NCI-H2170
Procedure, shortened: as §1

NCI-H1793 = tested on: NCI-H1793
Procedure, shortened: as §1

NCI-H1355 = tested on: NCI-H1355
Procedure, shortened: as §1

NCI-H647 = tested on: NCI-H647
Procedure, shortened: as §1

## CC1(C)CCC(c2ccc(Cl)cc2)=C(CN2CCN(c3ccc(C(=O)NS(=O)(=O)c4ccc(N[C@H](CCN5CCOCC5)CSc5ccccc5)c(S(=O)(=O)C(F)(F)F)c4)cc3)CC2)C1 [Navitoclax] + COc1cccc2cc(-c3nc([C@H]4CC[C@H](C(=O)O)CC4)n4ncnc(N)c34)[nH]c12 [OSI-027] (partner 0.5 µM)
NCI-H838; first compound 0.005 µM
  relative viability: 0.373
NCI-H838; first compound 0.01581 µM
  relative viability: 0.434
NCI-H838; first compound 0.05 µM
  relative viability: 0.495
NCI-H838; first compound 0.1581 µM
  relative viability: 0.349
NCI-H838; first compound 0.5 µM
  relative viability: 0.41
UMC-11; first compound 0.005 µM
  relative viability: 0.462
UMC-11; first compound 0.01581 µM
  relative viability: 0.501
UMC-11; first compound 0.05 µM
  relative viability: 0.471
UMC-11; first compound 0.1581 µM
  relative viability: 0.422
UMC-11; first compound 0.5 µM
  relative viability: 0.234
NCI-H1734; first compound 0.005 µM
  relative viability: 0.617
NCI-H1734; first compound 0.01581 µM
  relative viability: 0.822
NCI-H1734; first compound 0.1581 µM
  relative viability: 0.53
NCI-H1734; first compound 0.5 µM
  relative viability: 0.622
HARA; first compound 0.005 µM
  relative viability: 0.538
HARA; first compound 0.01581 µM
  relative viability: 0.684
HARA; first compound 0.1581 µM
  relative viability: 0.66
HARA; first compound 0.5 µM
  relative viability: 0.459
NCI-H1993; first compound 0.005 µM
  relative viability: 0.566
NCI-H1993; first compound 0.01581 µM
  relative viability: 0.523
NCI-H1993; first compound 0.05 µM
  relative viability: 0.551
NCI-H1993; first compound 0.1581 µM
  relative viability: 0.523
NCI-H1993; first compound 0.5 µM
  relative viability: 0.607
NCI-H1755; first compound 0.005 µM
  relative viability: 0.683
NCI-H1755; first compound 0.01581 µM
  relative viability: 0.834
NCI-H1755; first compound 0.05 µM
  relative viability: 0.612
NCI-H1755; first compound 0.1581 µM
  relative viability: 0.649
NCI-H1755; first compound 0.5 µM
  relative viability: 0.671
COR-L23; first compound 0.005 µM
  relative viability: 0.839
COR-L23; first compound 0.01581 µM
  relative viability: 0.814
COR-L23; first compound 0.05 µM
  relative viability: 0.877
COR-L23; first compound 0.1581 µM
  relative viability: 0.785
COR-L23; first compound 0.5 µM
  relative viability: 0.779
NCI-H1395; first compound 0.005 µM
  relative viability: 0.591
NCI-H1395; first compound 0.01581 µM
  relative viability: 0.77
NCI-H1395; first compound 0.05 µM
  relative viability: 0.601
NCI-H1395; first compound 0.1581 µM
  relative viability: 0.569
NCI-H1395; first compound 0.5 µM
  relative viability: 0.754
NCI-H2228; first compound 0.005 µM
  relative viability: 0.586
NCI-H2228; first compound 0.01581 µM
  relative viability: 0.726
NCI-H2228; first compound 0.1581 µM
  relative viability: 0.53
NCI-H2228; first compound 0.5 µM
  relative viability: 0.5
NCI-H2347; first compound 0.005 µM
  relative viability: 0.485
NCI-H2347; first compound 0.01581 µM
  relative viability: 0.451
NCI-H2347; first compound 0.1581 µM
  relative viability: 0.293
NCI-H2347; first compound 0.5 µM
  relative viability: 0.401
NCI-H2009; first compound 0.005 µM
  relative viability: 0.598
NCI-H2009; first compound 0.01581 µM
  relative viability: 0.792
NCI-H2009; first compound 0.05 µM
  relative viability: 0.576
NCI-H2009; first compound 0.1581 µM
  relative viability: 0.643
NCI-H2009; first compound 0.5 µM
  relative viability: 0.735
NCI-H2342; first compound 0.005 µM
  relative viability: 0.579
NCI-H2342; first compound 0.01581 µM
  relative viability: 0.632
NCI-H2342; first compound 0.05 µM
  relative viability: 0.628
NCI-H2342; first compound 0.1581 µM
  relative viability: 0.603
NCI-H2342; first compound 0.5 µM
  relative viability: 0.525
NCI-H358; first compound 0.005 µM
  relative viability: 0.785
NCI-H358; first compound 0.01581 µM
  relative viability: 1.01
NCI-H358; first compound 0.05 µM
  relative viability: 0.706
NCI-H358; first compound 0.1581 µM
  relative viability: 0.845
NCI-H358; first compound 0.5 µM
  relative viability: 0.686
EKVX; first compound 0.005 µM
  relative viability: 0.684
EKVX; first compound 0.01581 µM
  relative viability: 0.882
EKVX; first compound 0.05 µM
  relative viability: 0.651
EKVX; first compound 0.1581 µM
  relative viability: 0.686
EKVX; first compound 0.5 µM
  relative viability: 0.737
HCC-15; first compound 0.005 µM
  relative viability: 0.695
HCC-15; first compound 0.01581 µM
  relative viability: 0.746
HCC-15; first compound 0.05 µM
  relative viability: 0.573
HCC-15; first compound 0.1581 µM
  relative viability: 0.699
HCC-15; first compound 0.5 µM
  relative viability: 0.624
SK-MES-1; first compound 0.005 µM
  relative viability: 0.624
SK-MES-1; first compound 0.01581 µM
  relative viability: 0.681
SK-MES-1; first compound 0.05 µM
  relative viability: 0.525
SK-MES-1; first compound 0.1581 µM
  relative viability: 0.579
SK-MES-1; first compound 0.5 µM
  relative viability: 0.63
HOP-62; first compound 0.005 µM
  relative viability: 0.734
HOP-62; first compound 0.01581 µM
  relative viability: 0.971
HOP-62; first compound 0.05 µM
  relative viability: 0.863
HOP-62; first compound 0.1581 µM
  relative viability: 0.648
HOP-62; first compound 0.5 µM
  relative viability: 0.894
PC-14; first compound 0.005 µM
  relative viability: 0.735
PC-14; first compound 0.01581 µM
  relative viability: 1.12
PC-14; first compound 0.05 µM
  relative viability: 0.767
PC-14; first compound 0.1581 µM
  relative viability: 0.842
PC-14; first compound 0.5 µM
  relative viability: 0.748
COR-L 105; first compound 0.005 µM
  relative viability: 0.663
COR-L 105; first compound 0.01581 µM
  relative viability: 1.01
COR-L 105; first compound 0.05 µM
  relative viability: 0.573
COR-L 105; first compound 0.1581 µM
  relative viability: 0.775
COR-L 105; first compound 0.5 µM
  relative viability: 0.582
NCI-H2170; first compound 0.005 µM
  relative viability: 0.669
NCI-H2170; first compound 0.01581 µM
  relative viability: 0.814
NCI-H2170; first compound 0.05 µM
  relative viability: 0.787
NCI-H2170; first compound 0.1581 µM
  relative viability: 0.647
NCI-H2170; first compound 0.5 µM
  relative viability: 0.551
NCI-H1793; first compound 0.005 µM
  relative viability: 0.267
NCI-H1793; first compound 0.01581 µM
  relative viability: 0.414
NCI-H1793; first compound 0.1581 µM
  relative viability: 0.273
NCI-H1793; first compound 0.5 µM
  relative viability: 0.261
NCI-H1355; first compound 0.005 µM
  relative viability: 0.447
NCI-H1355; first compound 0.01581 µM
  relative viability: 0.469
NCI-H1355; first compound 0.05 µM
  relative viability: 0.425
NCI-H1355; first compound 0.1581 µM
  relative viability: 0.397
NCI-H1355; first compound 0.5 µM
  relative viability: 0.431
NCI-H647; first compound 0.005 µM
  relative viability: 0.674
NCI-H647; first compound 0.01581 µM
  relative viability: 0.738
NCI-H647; first compound 0.05 µM
  relative viability: 0.891
NCI-H647; first compound 0.1581 µM
  relative viability: 0.611
NCI-H647; first compound 0.5 µM
  relative viability: 0.597
